Drawing on patent US6579881B2 (Eisai Co., Ltd., priority 1997, dated 2003), this text covers Ki for 36 molecules.

pKi: −log10 of the molar value. Some results are limits rather than exact numbers.

In one assay the target is T1, serotonin 1A receptor (Rattus norvegicus, UniProt P19327).
T1 construct: To the receptor fraction of the hippocampus were added a test compound and 0.5 nM of [^3H]; 8-hydroxy-dipropylaminotetralin; from tissue; host or cells: SD rat hippocampus, membrane (receptor) fraction
T1 sequence (P19327 1-422): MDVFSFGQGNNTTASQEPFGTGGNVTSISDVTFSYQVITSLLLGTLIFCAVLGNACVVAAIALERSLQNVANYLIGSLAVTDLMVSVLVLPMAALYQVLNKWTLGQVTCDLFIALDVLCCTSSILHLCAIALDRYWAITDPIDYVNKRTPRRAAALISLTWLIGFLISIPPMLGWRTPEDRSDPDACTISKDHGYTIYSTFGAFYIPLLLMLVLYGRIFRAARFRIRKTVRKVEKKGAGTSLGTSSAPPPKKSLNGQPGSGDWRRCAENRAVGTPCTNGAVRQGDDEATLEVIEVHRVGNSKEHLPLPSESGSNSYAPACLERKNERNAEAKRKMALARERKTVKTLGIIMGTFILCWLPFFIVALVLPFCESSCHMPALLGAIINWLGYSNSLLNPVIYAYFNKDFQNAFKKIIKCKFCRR
The assay can be described thus: Binding test on [3H] 8-hydroxy-dipropylaminotetralin (serotonin 1A receptor). The conditions noted are these: [3H] 8-OH-DPAT 0.5 nM, receptor fraction of rat hippocampus; read-out: 5HT1a.

Another assay deals with serotonin 2 receptor (Rattus norvegicus, UniProt P14842). The assay can be described thus: Binding test on [3H] ketanserin (serotonin 2 receptor). The following applies: [3H] ketanserin 0.3 nM, receptor fraction of rat cerebral cortex; read-out: 5HT2.
Sequence of serotonin 2 receptor (P14842 whole entry): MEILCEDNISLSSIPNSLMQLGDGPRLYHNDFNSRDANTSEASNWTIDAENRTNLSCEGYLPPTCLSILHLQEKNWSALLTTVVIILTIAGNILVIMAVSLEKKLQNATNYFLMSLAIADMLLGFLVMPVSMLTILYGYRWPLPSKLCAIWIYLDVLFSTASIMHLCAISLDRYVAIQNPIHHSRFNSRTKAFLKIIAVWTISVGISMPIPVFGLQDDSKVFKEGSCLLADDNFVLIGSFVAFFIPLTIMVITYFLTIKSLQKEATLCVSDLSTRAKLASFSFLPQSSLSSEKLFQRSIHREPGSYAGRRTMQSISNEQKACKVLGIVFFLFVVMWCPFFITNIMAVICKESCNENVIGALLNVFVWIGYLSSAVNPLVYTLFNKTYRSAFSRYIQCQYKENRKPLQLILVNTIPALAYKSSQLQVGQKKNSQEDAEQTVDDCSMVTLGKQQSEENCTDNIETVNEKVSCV

For `Cn1cccc1-c1ccc2c(c1)N(C1CCN(CCc3ccc(F)cc3)CC1)CC2` [Example 173, 1-[1-(4-fluorophenethyl)piperidin-4-yl]-6-(1-methylpyrrol-2-yl)indoline], the values for the pKi at serotonin 1A receptor and at serotonin 2 receptor were 10.22 and 7.15, respectively.

As for `CCN1CCC(N2CC(Cc3ccc(F)cc3)c3ccccc32)CC1` (stereo not drawn) [Example 244, 1-(1-ethylpiperidin-4-yl)-3-(4-fluorobenzyl)indoline], the figures for the pKi at serotonin 1A receptor and at serotonin 2 receptor were less than 6.70 and 8.60, respectively.

`C[C@@H]1CN(CCc2ccc(F)cc2)CC[C@@H]1N1CCc2ccccc21` (relative stereo) [Example 79, cis-1-[1-(4-fluorophenethyl)-3-methylpiperidin-4-yl]indoline]: the pKi at serotonin 1A receptor was 6.94; at serotonin 2 receptor, 7.58.

For the molecule `Fc1ccc(CCN2CCC(CCN3CCc4ccccc43)CC2)cc1` [Example 17, 1-{2-[1-(4-fluorophenethyl)piperidin-4-yl]ethyl}indoline], the pKi at serotonin 1A receptor is 7.72; on serotonin 2 receptor it was 7.79.

As to `Clc1cccc(CCN2CCC(N3CCc4ccccc43)CC2)c1` [Example 5, 1-[1-(3-chlorophenethyl)piperidin-4-yl]indoline], the results for the pKi on serotonin 1A receptor and at serotonin 2 receptor were 8.00 and 8.09, respectively.

For `OC[C@H]1CN(CCc2ccc(F)cc2)CC[C@@H]1N1CCc2ccccc21` (relative stereo) [Example 82, trans-1-[1-(4-fluorophenethyl)-3-hydroxymethylpiperidin-4-yl]indoline], the pKi is 7.15 at serotonin 1A receptor and 8.28 on serotonin 2 receptor.

With `CC(=O)NCc1ccc(CCN2CCC(n3ccc4ccccc43)CC2)cc1` [Example 288, 1-[1-(4-acetamidomethylphenethyl)piperidin-4-yl]indole], the pKi at serotonin 1A receptor was 9.70; on serotonin 2 receptor it was 10.00.

Take `CC(O)c1ccc(CCN2CCC(N3CCc4ccccc43)CC2)cc1` (stereo not drawn) [Example 25, 1-{4-[(1-hydroxyethyl)phenethyl]piperidin-4-yl}indoline]: the results for the pKi on serotonin 1A receptor and on serotonin 2 receptor were 8.08 and 7.88, respectively.

Take `Fc1ccc(CCN2CCC(n3ccc4ccccc43)CC2)c(F)n1` [Example 332, 1-[1-(2,6-difluoro-3-pyridylethyl)piperidin-4-yl]indole]: the pKi at serotonin 1A receptor is 8.65; on serotonin 2 receptor, 7.79.

As to `Fc1ccc(CCN2CCC(N3CCc4cc5scnc5cc43)CC2)cc1` [Example 234, 1-[1-(4-fluorophenethyl)piperidin-4-yl]thiazolo[5,4-f]indoline], the pKi on serotonin 1A receptor was 8.96; at serotonin 2 receptor, 8.48.

On to `CCN1CCC(N2CC(Cc3cccnc3)c3ccccc32)CC1` (stereo not drawn) [Example 245, 1-(1-ethylpiperidin-4-yl)-3-(3-pyridylmethyl)indoline], for which the pKi at serotonin 1A receptor was less than 6.70; at serotonin 2 receptor, 7.95.

For the molecule `Nc1ccc2c(c1)N(C1CCN(CCc3ccc(F)cc3)CC1)CC2` [Example 110, 1-[1-(4-fluorophenethyl)piperidin-4-yl]-6-aminoindoline], the pKi on serotonin 1A receptor was 7.63; on serotonin 2 receptor, 7.80.

With `O=S(=O)(NCCN1CCC(N2CCc3ccccc32)CC1)c1ccc(Cl)cc1` [Example 47, 1-{1-[2-(4-chlorophenylsulfonylamino)ethyl]piperidin-4-yl}indoline], the figures for the pKi on serotonin 1A receptor and on serotonin 2 receptor were 6.69 and 7.03, respectively.

On to `COc1ccc2c(c1OC)N(C1CCN(CCc3ccc(F)cc3)CC1)CC2` [Example 108, 1-[1-(4-fluorophenethyl)piperidin-4-yl]-6,7-dimethoxyindoline], for which the pKi was 6.76 at serotonin 1A receptor and 8.66 at serotonin 2 receptor.

For the molecule `Fc1ccc(CCN2CCC(N3CCc4ccc(-c5nccs5)cc43)CC2)cc1` [Example 172, 1-[1-(4-fluorophenethyl)piperidin-4-yl]-6-(2-thiazolyl)indoline], the pKi at serotonin 1A receptor was 9.92; on serotonin 2 receptor, 7.28.

Consider `O=C(c1ccc2c(c1)N(C1CCN(CCc3ccc(F)cc3)CC1)CC2)n1cccc1` [Example 126, 1-[1-(4-fluorophenethyl)piperidin-4-yl]-6-(1-pyrrolylcarbonyl)indoline], for which the pKi is 8.91 at serotonin 1A receptor and 6.89 on serotonin 2 receptor.

As to `O=C(CCCN1CCC(N2CCc3ccccc32)CC1)c1ccc(F)cc1` [Example 72, 1-{1-[4-(4-fluorophenyl)-4-oxobutyl]piperidin-4-yl}indoline], the values for the pKi at serotonin 1A receptor and on serotonin 2 receptor were 7.59 and 7.68, respectively.

`CC(=O)c1ccc2c(c1)N(C1CCN(CCc3ccc(F)cc3)CC1)CC2` [Example 127, 1-[1-(4-fluorophenethyl)piperidin-4-yl]-6-acetylindoline]: the pKi is 9.68 at serotonin 1A receptor and 8.29 at serotonin 2 receptor.

For the molecule `OCc1ccc(CCN2CCC(N3CCc4ccccc43)CC2)cn1` [Example 55, 1-{1-[2-(2-hydroxymethylpyridin5-yl)ethyl]piperidin-4-yl}indoline], the pKi was 7.38 at serotonin 1A receptor and 7.75 on serotonin 2 receptor.

As to `OCCc1ccc(CCN2CCC(N3CCc4ccccc43)CC2)cc1` [Example 24, 1-{1-[4-(2-hydroxyethyl)phenethyl]piperidin-4-yl}indoline], the values for the pKi on serotonin 1A receptor and at serotonin 2 receptor were 7.58 and 6.76, respectively.

As to `CN1CCC(N2CCc3ccc(NS(=O)(=O)c4ccc(F)cc4)cc32)CC1` [Example 237, 1-(1-methylpiperidin-4-yl)-6-(4-fluorobenzenesulfonylamino)indoline], the pKi on serotonin 1A receptor was 7.52; at serotonin 2 receptor, less than 6.70.

`Fc1ccc(CCN2CCC(CN3CCc4ccccc43)CC2)cc1` [Example 16, 1-[1-(4-fluorophenethyl)piperidin-4-yl]methylindoline]: the figures for the pKi on serotonin 1A receptor and on serotonin 2 receptor were 6.96 and 7.86, respectively.

On to `O=C1CCCCN1Cc1ccc2c(c1)N(C1CCN(CCc3ccc(F)cc3)CC1)CC2` [Example 203, 1-[1-(4-fluorophenethyl)piperidin-4-yl]-6-(2-piperidon-1-yl)methylindole], for which the pKi is 9.26 at serotonin 1A receptor and 8.34 on serotonin 2 receptor.

Regarding `CN(C)Cc1ccc2c(c1)N(C1CCN(CCc3ccc(F)cc3)CC1)CC2` [Example 200, 1-[1-(4-fluorophenethyl)piperidin-4-yl]-6-N,N-dimethylaminomethylindoline], the pKi at serotonin 1A receptor is 8.32; on serotonin 2 receptor, 6.63.

As to `Fc1ccc(CCN2CCC(N3CCc4ccncc43)CC2)cc1` [Example 264, 1-[1-(4-fluorophenethyl)piperidin-4-yl]-6-azaindoline], the pKi on serotonin 1A receptor was 7.95; on serotonin 2 receptor it was 6.86.

Turning to `COc1cccc2c1CCN2C1CCN(CCc2ccc(F)cc2)CC1` [Example 105, 1-[1-(4-fluorophenethyl)piperidin-4-yl]-4-methoxyindoline], the pKi on serotonin 1A receptor was less than 6.70; at serotonin 2 receptor, 7.76.

As for `Fc1ccc(CCN2CCC(N3CCc4ccc(F)nc43)CC2)cc1` [Example 261, 1-[1-(4-fluorophenethyl)piperidin-4-yl]-6-fluoro-7-azaindoline], the pKi at serotonin 1A receptor was 8.82; at serotonin 2 receptor, 8.28.

Consider `Fc1ccc(CCN2CCC(N3CCc4ccc(-c5ccccn5)cc43)CC2)cc1` [Example 171, 1-[1-(4-fluorophenethyl)piperidin-4-yl]-6-(2-pyridyl)indoline], for which the figures for the pKi on serotonin 1A receptor and on serotonin 2 receptor were 9.41 and 6.75, respectively.

With `Fc1ccc(CCN2CCC(N3CCc4cccnc43)CC2)cc1` [Example 260, 1-[1-(4-fluorophenethyl)piperidin-4-yl]-7-azaindoline], the pKi was 8.89 on serotonin 1A receptor and 7.89 at serotonin 2 receptor.

Take `NC(=S)Cc1ccc2c(c1)N(C1CCN(CCc3ccc(F)cc3)CC1)CC2` [Example 129, 1-[1-(4-fluorophenethyl)piperidin-4-yl]-6-thiocarbamoylmethylindoline]: the pKi on serotonin 1A receptor is 9.02; on serotonin 2 receptor, 9.19.

`COc1ncccc1Cc1ccc2c(c1)N(C1CCN(CCc3ccc(F)cc3)CC1)CC2` [Example 185, 1-[1-(4-fluorophenethyl)piperidin-4-yl]-6-[1-(2-methoxypyridin-3-yl)methyl]indoline]: the pKi at serotonin 1A receptor is 7.84; at serotonin 2 receptor, 8.33.

Consider `OC(c1ccc2c(c1)N(C1CCN(CCc3ccc(F)cc3)CC1)CC2)c1cscn1` (stereo not drawn) [Example 195, 1-[1-(4-fluorophenethyl)piperidin-4-yl]-6-[1-(4-thiazolyl)-1-hydroxymethyl]indoline], for which the pKi was 8.24 at serotonin 1A receptor and 8.94 at serotonin 2 receptor.

As for `OC(c1ccc2c(c1)N(C1CCN(CCc3ccc(F)cc3)CC1)CC2)c1nccs1` (stereo not drawn) [Example 193, 1-[1-(4-fluorophenethyl)piperidin-4-yl]-6-[1-(2-thiazolyl)-1-hydroxymethyl]indoline], the figures for the pKi at serotonin 1A receptor and on serotonin 2 receptor were 8.16 and 8.54, respectively.

As for `O=C(O)Cc1ccc2c(c1)N(C1CCN(CCc3ccc(F)cc3)CC1)CC2` [Example 146, 1-[1-(4-fluorophenethyl)piperidin-4-yl]-6-carboxymethylindoline], the results for the pKi at serotonin 1A receptor and on serotonin 2 receptor were 6.79 and less than 6.70, respectively.

`CS(=O)(=O)Nc1ccc2c(c1)N(C1CCN(CCc3ccc(F)cc3F)CC1)CC2` [Example 221, 1-[1-(2,4-difluorophenethyl)piperidin-4-yl]-6-methanesulfonylaminoindoline]: the pKi on serotonin 1A receptor was 8.72; at serotonin 2 receptor, 8.62.

`Fc1ccc(CCN2CCC(N3CCc4cc5c(cc43)OCO5)CC2)cc1` [Example 284, 1-[1-(4-fluorophenethyl)piperidin-4-yl]-5,6-methylenedioxyindoline]: the pKi on serotonin 1A receptor is 8.35; at serotonin 2 receptor it was 8.33.
